The values that follow come from patent US10934302B1, “SHP2 phosphatase inhibitors and methods of use thereof” (Relay Therapeutics, Inc., priority 2018, dated 2021).

For this assay, the target named is SHP2 (Homo sapiens (Human), UniProt Q06124). Description: SHP2 allosteric inhibition assay (DiFMUP prompt fluorescence). The conditions noted are these: 0.25 nM SHP2 activated with 0.5 μM peptide IRS1_pY1172(dPEG8)pY1222; substrate DiFMUP. Format: biochemical.
SHP2, sequence (Q06124 whole entry): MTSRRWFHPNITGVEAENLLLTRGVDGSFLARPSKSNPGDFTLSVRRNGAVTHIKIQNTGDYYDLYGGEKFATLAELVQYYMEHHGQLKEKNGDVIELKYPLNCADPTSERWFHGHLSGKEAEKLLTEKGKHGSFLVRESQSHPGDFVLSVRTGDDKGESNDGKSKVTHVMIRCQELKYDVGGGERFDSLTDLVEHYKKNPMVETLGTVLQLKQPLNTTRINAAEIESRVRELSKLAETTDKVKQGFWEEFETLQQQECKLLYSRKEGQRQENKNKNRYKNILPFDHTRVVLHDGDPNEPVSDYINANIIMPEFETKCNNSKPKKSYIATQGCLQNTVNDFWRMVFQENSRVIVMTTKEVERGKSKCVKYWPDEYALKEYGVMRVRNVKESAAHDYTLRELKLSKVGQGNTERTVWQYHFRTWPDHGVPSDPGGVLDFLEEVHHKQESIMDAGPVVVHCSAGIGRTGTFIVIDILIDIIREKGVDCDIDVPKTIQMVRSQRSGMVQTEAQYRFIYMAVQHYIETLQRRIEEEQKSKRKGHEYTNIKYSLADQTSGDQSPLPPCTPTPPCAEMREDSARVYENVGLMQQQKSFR
What is called IC50 is the concentration at which inhibition is half-maximal. `CN(c1ccnc(N)c1)c1n[nH]c2nc(N3CCC4(CC3)Cc3ccccc3[C@H]4N)cnc12` [Example 148, (S)—N4-(6-(1-amino-1,3-dihydrospiro[indene-2,4′-piperidin]-1′-yl)-1H-pyrazolo[3,4-b]pyrazin-3-yl)-N4-methylpyridine-2,4-diamine] gave an IC50 not above 50 nM.

Compound `N[C@@H]1c2ccccc2CC12CCN(c1cnc(Sc3cc[nH]c(=O)c3Cl)cn1)CC2` [Example 131, 4-({5-[(3S)-3-amino-1,3-dihydrospiro[indene-2,4′-piperidin]-1′-yl]pyrazin-2-yl}sulfanyl)-3-chloro-1,2-dihydropyridin-2-one] came in with an IC50 not above 50 nM.

`NC1c2ccccc2C[C@]12CC[C@H](c1ccc(SCC3CC3)nc1)CC2` (single isomer, unassigned) [Example 281, (1s, 3'S, 4R)-4-{6-[(cyclopropylmethyl)sulfanyl]pyridin-3-yl}-1′,3′-dihydrospiro[cyclohexane-1,2′-inden]-3′-amine] came in with an IC50 of 50 to 1000 nM.

As for `NC1c2ncccc2CC12CCN(c1cnc3c(N4CCCc5ncccc54)n[nH]c3n1)CC2` (stereo not drawn) [Example 45], the IC50 is not above 50 nM.

`N[C@@H]1c2ccccc2CC12CCN(c1cnc3c(-c4cccc5ncccc45)n[nH]c3n1)CC2` [Example 68] gave an IC50 not above 50 nM.

`N[C@@H]1c2ccccc2CC12CCN(c1nc3[nH]nc(N4CCCc5ncccc54)c3nc1CO)CC2` [Example 100] yielded an IC50 of 50 to 1000 nM.

`N[C@@H]1c2ccccc2CC12CCN(c1cc(C(F)(F)F)c3nncn3n1)CC2` [Example 230] registered a half-inhibitory concentration (IC50) of 1000 to 10000 nM.

Regarding `NC1c2ccccc2C[C@]12CC[C@H](c1ccc(SCC3CC3)nc1)CC2` (single isomer, unassigned) [Example 282, (1s, 3′R, 4S)-4-{6-[(cyclopropylmethyl)sulfanyl]pyridin-3-yl}-1′,3′-dihydrospiro[cyclohexane-1,2′-inden]-3′-amine], the IC50 is not above 50 nM.

Take `Cc1nc2c(N3CCCCC3)n[nH]c2nc1N1CCC2(CC1)Oc1ccc(F)cc1[C@H]2N` [Example 208]: the IC50 was in the range of 1000 to 10000 nM.

On to `N[C@@H]1c2ccccc2CC12CCN(c1cnc(SC3CC3)cn1)CC2` [Example 241, (S)-1′-(5-(cyclopropylthio)pyrazin-2-yl)-1,3-dihydrospiro[indene-2,4′-piperidin]-1-amine], for which the half-maximal inhibitory concentration (IC50) is not above 50 nM.

Turning to `Nc1nccc(Sc2cnc(N3CCC4(CC3)Cc3ccccc3[C@@H]4N)cn2)c1Cl` [Example 80, (R)-1′-(5-((2-amino-3-chloropyridin-4-yl)thio)pyrazin-2-yl)-1,3-dihydrospiro[indene-2,4′-piperidin]-1-amine], the IC50 was not above 50 nM.

The compound `N[C@@H]1c2ccccc2CC12CCN(c1cnc3c(C#Cc4ccccc4)n[nH]c3n1)CC2` [Example 143, (S)-1′-(3-(phenylethynyl)-1H-pyrazolo[3,4-b]pyrazin-6-yl)-1,3-dihydrospiro[indene-2,4′-piperidin]-1-amine] returned an IC50 not above 50 nM.

Turning to `CS(=O)(=O)c1cccc2c1CCCN2c1n[nH]c2nc(N3CCC4(CC3)Cc3ccc(F)cc3[C@H]4N)cnc12` [Example 41], the IC50 is not above 50 nM.

For the compound `NC1c2ccccc2CC12CCC(c1cnc(SCC3CC3)cn1)CC2` (single isomer, unassigned) [Example 283, (1s, 3'S, 4R)-4-{5-[(cyclopropylmethyl)sulfanyl]pyrazin-2-yl}-1′,3′-dihydrospiro[cyclohexane-1,2′-inden]-3′-amine], the IC50 is more than 10000 nM.

For `C[C@@H](C(=O)N1CCC2(CC1)Cc1ccccc1[C@H]2N)c1ccc(F)cc1` (single isomer, unassigned) [Example 291], the IC50 is more than 10000 nM.

The compound `N[C@H]1c2ccccc2CC12CCN(c1cnc3c(-c4cc5cc[nH]c5cc4F)n[nH]c3n1)CC2` [Example 73] yielded an IC50 not above 50 nM.

For the compound `COc1cccc(-n2nccc2C(=O)N2CCC3(CC2)Cc2ccccc2[C@H]3N)c1` [Example 288, (1S)-1′-[1-(3-methoxyphenyl)-1H-pyrazole-5-carbonyl]-1,3-dihydrospiro[indene-2,4′-piperidin]-1-amine], the IC50 is more than 10000 nM.

`Cc1nc(Sc2ccnc(N)c2Cl)cnc1N1CCC2(CC1)Cc1ccccc1[C@H]2N` [Example 84, (S)-1′-(5-((2-amino-3-chloropyridin-4-yl)thio)-3-methylpyrazin-2-yl)-1,3-dihydrospiro[indene-2,4′-piperidin]-1-amine] returned an IC50 not above 50 nM.

In turn, `N[C@@H]1c2ccccc2CC12CCN(c1cnc(Sc3ccnc(Cl)c3Cl)cn1)CC2` [Example 130, (3S)-1′-{5-[(2,3-dichloropyridin-4-yl)sulfanyl]pyrazin-2-yl}-1,3-dihydrospiro[indene-2,4′-piperidin]-3-amine] yielded an IC50 not above 50 nM.

In the case of `N[C@@H]1c2cccc(F)c2CC12CCN(c1cnc3cn[nH]c3n1)CC2` [Example 23], the IC50 fell in the range of 1000 to 10000 nM.

Take `N[C@@H]1c2ccccc2CC12CCN(c1cnc3c(N4CCCc5nc(-c6ncco6)ccc54)n[nH]c3n1)CC2` [Example 37]: the IC50 is not above 50 nM.

As for `N#Cc1cccc2c1[C@@H](N)C1(CCN(c3cnc4c(N5CCCc6ncccc65)n[nH]c4n3)CC1)C2` [Example 105, (3S)-3-amino-1′-[3-(1,2,3,4-tetrahydro-1,5-naphthyridin-1-yl)-1H-pyrazolo[3,4-b]pyrazin-6-yl]-1,3-dihydrospiro[indene-2,4′-piperidine]-4-carbonitrile], the IC50 was not above 50 nM.

The compound `N[C@H]1c2ccccc2OC12CCN(c1cnc3c(N4CCCc5ncccc54)n[nH]c3n1)CC2` [Example 118, (S)-1′-(3-(3,4-dihydro-1,5-naphthyridin-1(2H)-yl)-1H-pyrazolo[3,4-b]pyrazin-6-yl)-3H-spiro[benzofuran-2,4′-piperidin]-3-amine] had an IC50 not above 50 nM.

`C[C@H](O)c1nc2c(N3CCCc4ncccc43)n[nH]c2nc1N1CCC2(CC1)Cc1ccccc1[C@H]2N` (single isomer, unassigned) [Example 142] showed an IC50 not above 50 nM.

The compound `COc1ccc2c(n1)CC1(CCN(c3cnc4c(N5CCCc6ncccc65)n[nH]c4n3)CC1)[C@@H]2N` [Example 108] showed an IC50 not above 50 nM.

Turning to `N[C@@H]1c2ccccc2CC12CCN(c1cnc(C(=O)N3CCCc4ncccc43)cn1)CC2` [Example 111], the IC50 was not above 50 nM.

As for `Cc1nc2c(N3CCCC3)n[nH]c2nc1N1CCC2(CC1)Cc1ccccc1[C@H]2N` [Example 254, (1S)-1′-[5-methyl-3-(pyrrolidin-1-yl)-1H-pyrazolo[3,4-b]pyrazin-6-yl]-1,3-dihydrospiro[indene-2,4′-piperidin]-1-amine], the concentration for half-maximal inhibition (IC50) was more than 10000 nM.

`CNC(=O)c1n[nH]c2nc(N3CCC4(CC3)Cc3ccccc3[C@H]4N)c(CO)nc12` [Example 155, 6-[(3S)-3-amino-1,3-dihydrospiro[indene-2,4′-piperidin]-1′-yl]-5-(hydroxymethyl)-N-methyl-1H-pyrazolo[3,4-b]pyrazine-3-carboxamide] showed an IC50 not above 50 nM.

`N[C@@H]1c2ccccc2CC12CCN(c1cnc(N3CCCC[C@H]3c3ccccc3)cn1)CC2` (racemic) [Example 176] had an IC50 of more than 10000 nM.

As to `Nc1nccc(-c2n[nH]c3nc(N4CCC5(CC4)Cc4ccccc4[C@@H]5N)cnc23)c1F` [Example 77, (R)-1′-(3-(2-amino-3-fluoropyridin-4-yl)-1H-pyrazolo[3,4-b]pyrazin-6-yl)-1,3-dihydrospiro[indene-2,4′-piperidin]-1-amine], the IC50 was not above 50 nM.
